The source of these data is PMC12027554, “Inhibition of ABCG2 by SCO-101 Enhances Chemotherapy Efficacy in Cancer” (International Journal of Molecular Sciences, 2025).

Bounds are passed on as bounds.

The term IC50 denotes the concentration at which inhibition is half-maximal. By EC50 is commonly meant the concentration that produces a half-maximal response.

The subject of one data set is HT29PAR cells. The data set can be described thus: Cell viability assay (MTT / CCK-8), drug-sensitive HT29. It is filed as cell-based, human. As to conditions: Homo sapiens, HT-29, 72 h. The procedure: (§1) Cells were seeded at a density of 0.2–1 × 10^4 cells/well into 96-well plates. One day after seeding, treatments were performed in triplicate for 72 h, or as otherwise indicated in the relevant panel/figure legend and kept at 37 °C/5% CO2. Growth medium alone (“untreated” cells) or DMSO was used as a control.
(§2) For MTT assays, media were replaced at the final timepoint with 100 μL of 1:10 MTT reagent (0.5 mg/mL in PBS) diluted in growth medium, and plates were incubated for 3 h. A total of 100 μL/well of stop buffer (50 g Sodium Dodecyl Sulfate, 245 mL ddH2O, 5 mL 1N HCl) was added and plates incubated for 24 h to let colored formazan crystals develop. Optical densities (ODs) were measured with a PowerWave^TM Microplate spectrophotometer (BioTek, Winooski, VT, USA) at 570 nm and 670 nm (background).
(§3) For CCK-8 assays, 100 μL of 1:10 CCK-8 reagent (pevonedistat-treated HT29 cells) diluted in medium was added to each well and cells incubated for 1–2 h at 37 °C. OD values were measured at 450 nm with a VersaMax microplate spectrophotometer (Molecular Devices, San Jose, CA, USA).
(§4) Background values were subtracted prior to further analysis. The percentage of cell viability was expressed as relative values versus untreated cells as determined by the various assays. EC50/IC50 values were calculated using GraphPad Prism (v10.4.1) and the in-built non-linear regression [log (inhibitor) vs. response—variable slope (four parameters)] calculation. For determination of synergy scores, the online tool SynergyFinder+ (https://synergyfinder.org access date 15 February 2025) was employed following 4 × 4- or 6 × 6-matrix dose-escalation cell viability experiments. Doses of drugs are indicated in the relevant figure legends and ranges have been chosen based on the response of cells to single-drug dose-dependent experiments. Synergy scores were calculated using the ZIP model, which takes the advantages of both the Loewe additivity and the Bliss independence models, aiming at a systematic assessment of various types of drug interaction patterns that may arise in a high-throughput drug combination screening.

The test system of data set [1] is HT29SN-38 cells. The data set can be described thus: Cell viability assay (MTT / CCK-8), SN-38-resistant HT29. It is filed as cell-based, human. The procedure: as §1, §2, §3, §4
Another data set deals with T1, ABCG2 (Homo sapiens, UniProt Q9UNQ0).
T1 sequence (Q9UNQ0 1-655): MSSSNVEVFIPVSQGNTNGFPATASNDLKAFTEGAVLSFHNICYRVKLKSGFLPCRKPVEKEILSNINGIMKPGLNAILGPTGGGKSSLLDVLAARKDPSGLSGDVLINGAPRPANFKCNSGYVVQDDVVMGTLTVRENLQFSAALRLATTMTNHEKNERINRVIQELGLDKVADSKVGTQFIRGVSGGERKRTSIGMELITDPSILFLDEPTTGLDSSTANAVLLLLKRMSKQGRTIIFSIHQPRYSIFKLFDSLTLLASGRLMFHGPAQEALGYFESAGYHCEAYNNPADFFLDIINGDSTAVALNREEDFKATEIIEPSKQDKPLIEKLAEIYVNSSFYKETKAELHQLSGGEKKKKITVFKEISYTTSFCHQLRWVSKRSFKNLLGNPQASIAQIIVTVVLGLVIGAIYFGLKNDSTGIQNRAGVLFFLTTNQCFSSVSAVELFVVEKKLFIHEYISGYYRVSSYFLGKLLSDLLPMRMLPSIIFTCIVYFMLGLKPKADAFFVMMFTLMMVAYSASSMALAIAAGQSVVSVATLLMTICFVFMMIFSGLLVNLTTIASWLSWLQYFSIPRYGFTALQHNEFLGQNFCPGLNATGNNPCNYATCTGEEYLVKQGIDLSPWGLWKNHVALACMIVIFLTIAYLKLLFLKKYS
The data set can be described thus: Bidirectional transport of estrone-3-sulfate across Caco-2 cell monolayers. It is filed as cell-based. As to conditions: Caco-2 monolayers, 50 µM SCO-101. The procedure:
(§5) Bidirectional transport experiments (basolateral-to-apical and apical-to-basolateral) with the ABCG2 substrate estrone-3-sulfate and the MDR1/ABCB1 substrate digoxin were performed in Caco-2 cell monolayers as previously described.
(In general: Caco-2 cells form a polarised layer with tight junctions and transporters.)

The subject of data set [2] is HT29SN-38 cells. The data set can be described thus: 3H-SN-38 uptake in cell monolayers. It is filed as cell-based, human. As to conditions: HT29SN-38 monolayers. The procedure: Cells were seeded at a density of 1.8 × 10^4 cells/well in 96-well plates and sub-cultured for 48 h. Drugs were dissolved in HBSS transport buffer (HBSS, 0.05% BSA, 10 mM HEPES, pH 7.4) at different concentrations. All treatments were investigated in technical triplicates. On the day of the experiments, the culture medium was exchanged with 100 μL transport buffer and cells incubated for 15 min at 37 °C. Next, the blank transport buffer was exchanged with 50 μL transport buffer containing the different compounds (2X of final concentrations) and incubated for an additional 15 min at 37 °C. The uptake experiment was started by adding 50 μL of 2 μCi/mL ^3H-SN38 and stopped after 15 min of incubation at 37 °C by removing the transport buffer from all wells. Cell monolayers were washed twice by adding/removing ice-cold transport buffer and lysed for 15 min at RT in 100 μL 0.1% TritonX-100. Cell lysates were transferred to scintillation vials containing 2 mL of scintillation fluid (Ultima Gold, PerkinElmer). Each well was washed with 100 μL purified water (milliQ), which was also transferred to respective scintillation vials. The radioactivity in each scintillation vial was measured by means of scintillation counting (Tri-Carb 2910 TR, PerkinElmer, Waltham, MA, USA).

For another data set, the system named is SCH cells. In words: Cell viability assay (CellTiter-Glo), SCH. It is filed as cell-based. Particulars: 96 h. The procedure:
as §1
(§6) For SCH, SNU-5, and MKN45 cells, 50 μL of CellTiter-Glo® Reagent (Promega; Madison, WI, USA) was added to each well at the end of the treatments. The content was mixed for 5 min to facilitate cell lysis and plates incubated at room temperature for 10 min to stabilize luminescent signals, which were then recorded using an EnVision Multi Label Reader (PerkinElmer; Waltham, MA, USA).
(§7) Background values were subtracted prior to further analysis. The percentage of cell viability was expressed as relative values versus untreated cells as determined by the various assays. EC50/IC50 values were calculated using GraphPad Prism (v10.4.1) and the in-built non-linear regression [log (inhibitor) vs. response—variable slope (four parameters)] calculation. […] Synergy scores were calculated using the ZIP model, which takes the advantages of both the Loewe additivity and the Bliss independence models, aiming at a systematic assessment of various types of drug interaction patterns that may arise in a high-throughput drug combination screening.
(In general: ATP-based viability assays read luminescence as a measure of living cells.)

In a further data set the test system is SNU-5 cells. In words: Cell viability assay (CellTiter-Glo), SNU-5. It is filed as cell-based. As to conditions: Homo sapiens, 96 h. As for the experimental part: as §1, §6, §7
In a further data set the test system is MKN45 cells. The data set can be described thus: Cell viability assay (CellTiter-Glo), MKN45. It is filed as cell-based. As to conditions: Homo sapiens, MKN-45, 96 h. The procedure: as §1, §6, §7
On the set-up of data set [3]: method as in earlier work. Particulars: oral SCO-101 in combination with FOLFIRI; cited from earlier work.
In the next data set the target is MDR1/ABCB1 (Homo sapiens, UniProt P08183). The data set can be described thus: Bidirectional transport of digoxin across Caco-2 cell monolayers. As to conditions: Caco-2 monolayers, 50 µM SCO-101. More on the design: endogenous in cells; host or cells: Caco-2. It is filed as cell-based. The procedure: as §5
MDR1/ABCB1, sequence (P08183 whole entry): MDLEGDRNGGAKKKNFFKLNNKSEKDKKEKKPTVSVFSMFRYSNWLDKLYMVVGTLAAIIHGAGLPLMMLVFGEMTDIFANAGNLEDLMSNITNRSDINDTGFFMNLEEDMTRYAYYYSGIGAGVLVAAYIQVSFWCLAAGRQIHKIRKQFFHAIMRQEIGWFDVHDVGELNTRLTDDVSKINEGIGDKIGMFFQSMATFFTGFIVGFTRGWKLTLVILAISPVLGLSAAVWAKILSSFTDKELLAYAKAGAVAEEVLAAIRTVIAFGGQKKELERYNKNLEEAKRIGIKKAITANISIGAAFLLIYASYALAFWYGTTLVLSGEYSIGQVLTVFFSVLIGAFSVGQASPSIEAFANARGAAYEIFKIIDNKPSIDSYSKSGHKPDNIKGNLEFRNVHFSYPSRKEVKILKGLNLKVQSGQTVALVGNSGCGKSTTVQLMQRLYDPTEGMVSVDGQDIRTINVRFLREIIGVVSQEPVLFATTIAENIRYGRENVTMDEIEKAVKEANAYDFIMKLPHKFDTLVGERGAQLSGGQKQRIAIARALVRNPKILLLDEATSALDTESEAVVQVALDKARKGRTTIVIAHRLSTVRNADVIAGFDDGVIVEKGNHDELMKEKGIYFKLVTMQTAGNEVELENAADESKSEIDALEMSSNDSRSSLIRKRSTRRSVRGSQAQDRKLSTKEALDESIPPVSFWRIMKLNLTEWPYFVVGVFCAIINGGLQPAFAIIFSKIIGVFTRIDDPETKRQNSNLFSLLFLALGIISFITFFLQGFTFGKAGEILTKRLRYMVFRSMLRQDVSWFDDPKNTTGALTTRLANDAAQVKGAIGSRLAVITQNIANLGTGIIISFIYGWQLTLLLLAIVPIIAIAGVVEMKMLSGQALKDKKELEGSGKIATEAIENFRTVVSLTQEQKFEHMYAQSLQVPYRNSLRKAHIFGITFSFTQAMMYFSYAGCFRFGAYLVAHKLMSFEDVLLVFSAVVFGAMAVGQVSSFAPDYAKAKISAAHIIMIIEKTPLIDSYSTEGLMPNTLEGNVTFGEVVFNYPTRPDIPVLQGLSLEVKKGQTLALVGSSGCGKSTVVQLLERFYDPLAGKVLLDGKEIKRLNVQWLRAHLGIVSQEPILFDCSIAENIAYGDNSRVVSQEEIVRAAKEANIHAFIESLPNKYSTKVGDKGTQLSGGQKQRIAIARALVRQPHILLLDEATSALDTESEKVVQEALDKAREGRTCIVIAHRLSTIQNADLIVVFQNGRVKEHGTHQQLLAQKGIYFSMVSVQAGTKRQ

In the case of `O=C(Nc1cc(C(F)(F)F)cc(C(F)(F)F)c1)Nc1ccc(Br)cc1-c1nnn[nH]1` [SCO-101, N-[4-Bromo-2-(1H-1,2,3,4-tetrazol-5-yl)phenyl]-N′-[3,5-bis(trifluoromethyl)phenyl]urea], the IC50 is over 25 µM in the data set on HT29PAR cells; over 25 µM in the data set with HT29SN-38 cells [1] (Homo sapiens, HT-29, 72 h); over 50 µM with SCH cells; over 50 µM in the data set on SNU-5 cells; over 50 µM in the data set with MKN45 cells. Moreover, in the data set with HT29SN-38 cells [1] (SCO-101 0–50 µM + SN-38 0.08 μM), the “cell viability, SCO-101 in combination with SN-38” value is “re-sensitization”. In addition, the “cell viability after 24 h combination treatment and drug washout” value in the data set with HT29SN-38 cells [1] (SCO-101 15 μM + SN-38 0.5 μM, washout 48 h or 120 h) is listed as “significant cytotoxic effect”. The “cell viability after 24 h single treatment and drug washout” value in the data set on HT29SN-38 cells [1] (SCO-101 15 μM or SN-38 0.5 μM alone, washout 48 h or 120 h) is “did not affect cell viability”. Besides, at ABCG2, the “basolateral-to-apical transport of the ABCG2 substrate estrone-3-sulfate” value is reported as “completely blocked”. In addition, in the data set on HT29SN-38 cells [2] (SCO-101 25 µM, Ko-143 0.5 µM, ZSQ 0.5 µM, vs control (HBSS)), the “cellular accumulation of 3H-SN-38” value is reported as “greater than those of Ko-143-treated cells”. Moreover, the concentration giving a half-maximal response (EC50) in the data set with HT29SN-38 cells [2] (Homo sapiens, read-out: EC50, 3H-SN-38 uptake (regarded as IC50 of ABCG2 inhibition)) came out at 6.4 µM. The safety result in data set [3] is on record as “safe”. Further, the “transport of the MDR1/ABCB1 substrate digoxin” value on MDR1/ABCB1 is reported as “only a limited difference”.
